Laboratory results taken from patent publication US5674867A, “Indolocarbazole derivatives and therapeutic method for stimulating megakaicyocyte production” (Kyowa Hakko Kogyo Co., Ltd., priority 1992, dated 1997).
Where “and” joins values, the source holds several entries; their conditions need not be identical. Identical values can stand only once.

How the values were obtained:
[1] = system: bone marrow cells (megakaryocyte colony formation); assay: Megakaryocyte colony formation-stimulating activity (ACHE-stained colonies, bone marrow cells with IL-3); assay type: cell-based, BALB/c mouse; conditions: with IL-3 100 U/ml, 7 days
Experimental: An eight-weeks-old BALB/c mouse was killed. Its femurs and cervical vertebrae were taken out, and both end sections thereof were cut off. Bone marrow cells were collected from the pieces cut off from the femurs and cervical vertebrae using a syringe containing IMDM (430-2200EA prepared by Gibco Co.), and then blown into a test tube. The test tube was allowed to stand for 5 minutes, and the supernatant was collected with a pipet. To a reaction mixture comprising the bone marrow cells (50,000 cells), bovine serum albumin (2%: A4508 made by Sigma Co.), transferrin (600 μg/ml 652202 made by Boehringer Mannheim Co.), IL-3 (100 U/ml), cholesterol (16 μg/ml: 036-0641 made by Wako Co.) and agar (0.6%: 0142-02 made by Difco Laboratories) were separately added the test compounds at various concentrations, and 1 ml each of the mixtures was put into a 35-mm dish (Lux Co.), followed by incubation under the conditions of 37° C., 5% CO2 and a humidity of 95% or more for 7 days. Separately, IL-3 alone was added to the bone marrow cells to prepare a control, whereas a positive control was prepared by adding 200 U/ml IL-6 to the above-mentioned reaction mixture. After the incubation was completed, the agar was dried over a filter paper (1001-055 made by Whatman Co.) and then fixed with 2.5% glutaraldehyde, followed by acetylcholinesterase staining (ACHE staining).
The ACHE staining was carried out by the method described below.
ACHE staining: To each sample was added a solution comprising 0.67 mg/ml acetylthiocholine iodide, 2.94 mg/ml sodium citrate, 7.5 mg/ml copper (II) sulfate and 1.65 mg/ml potassium ferricyanide, and the mixture was allowed to stand at room temperature in the dark for 4-6 hours.
A group of 4 or more megakaryocytes which were stained reddish brown was regarded as a colony, and the number of colonies per dish was calculated using a microscope. The results are shown in Table 2 as relative values to the control.

platelets = assay: Platelet production-stimulating activity in mice; assay type: in vivo, BALB/c mice; conditions: 7.5 mg/kg/day × 5, caudal vein; for Number of platelets, individual mouse: 7.5 mg/kg/day
Experimental: BALB/c mice (male, 7-weeks-old) were divided into 2 groups. To one group (control group) was administered a solvent (1% lactic acid, 4% aqueous solution of glucose) alone. On the other hand, the test group (Compound I-1-administered group) received 0.2 ml of a solution of Compound I-1 in the above solvent at a dose of 7.5 mg/kg via the caudal vein once a day for 5 days (Day 1-Day 5). On the day before the administration (Day 0) and the seventh day after the start of administration (Day 7), the ninth day (Day 9), the 14th day (Day 14) and the 21st day (Day 21), 20 μl of blood was collected from the fundus oculi vein of the mice of each group, and the number of the platelets was counted with a microcell counter (Type CC-180A made by Toa Iryo Denshi Co.).

Acute toxicity test = conditions: mouse, in vivo, ip; male DDY mice, intraperitoneal, survival after 24 hours; read-out: LD50 (50% survival dose)
Experimental: To 6-weeks-old male DDY mice (3 per group) was intraperitoneally administered 0.2 ml of a solution of a test compound in a phosphate-buffered physiological saline. The 50% survival doses (LD50) were calculated from the survival rate after 24 hours. The LD50 for Compounds I-1, 17, 25, 26, 30-33, 35, 40 and 52 was >1 mg/kg, while that for all the other compounds was >30 mg/kg.

CNC1CC2OC(C)(C1OC)n1c3ccccc3c3c4c(c5c6ccccc6n2c5c31)C(=O)NC4O (stereo not drawn) [Compound I-1]
Relative value (megakaryocyte colonies, control = 100) ([1]; 1 nM): 127 | Number of platelets, individual mouse (platelets; Day 0 (day before administration)): 92.6 × 10^4 /mm^3 and 90.5 × 10^4 /mm^3 and 94.2 × 10^4 /mm^3 and 117.6 × 10^4 /mm^3 and 111.7 × 10^4 /mm^3 and 95.5 × 10^4 /mm^3 | Number of platelets (Average) (platelets; Day 0 (day before administration), control average 110.9): 100.4 × 10^4 /mm^3 | % Relative value (number of platelets, Day 0 = 100) (platelets; Day 0, control 100): 100% | Number of platelets, individual mouse (platelets; Day 7): 103.1 × 10^4 /mm^3 and 91.8 × 10^4 /mm^3 and 119.4 × 10^4 /mm^3 and 155.7 × 10^4 /mm^3 and 136.3 × 10^4 /mm^3 and 111.2 × 10^4 /mm^3 | % Relative value (number of platelets, Day 0 = 100) (platelets; Day 7, control 120.3): 119.1% | Number of platelets (Average) (platelets; Day 7, control average 133.4): 119.6 × 10^4 /mm^3 | Number of platelets, individual mouse (platelets; Day 9): 125.3 × 10^4 /mm^3 and 160.0 × 10^4 /mm^3 and 144.5 × 10^4 /mm^3 and 136.1 × 10^4 /mm^3 and 146.8 × 10^4 /mm^3 | % Relative value (number of platelets, Day 0 = 100) (platelets; Day 9, control 103.2): 144.9% | Number of platelets (Average) (platelets; Day 9, control average 114.5): 145.5 × 10^4 /mm^3 | Number of platelets, individual mouse (platelets; Day 14): 125.3 × 10^4 /mm^3 and 106.4 × 10^4 /mm^3 and 121.1 × 10^4 /mm^3 and 145.4 × 10^4 /mm^3 and 112.3 × 10^4 /mm^3 and 115.0 × 10^4 /mm^3 | % Relative value (number of platelets, Day 0 = 100) (platelets; Day 14, control 98.4): 120.4% | Number of platelets (Average) (platelets; Day 14, control average 109.1): 120.9 × 10^4 /mm^3 | Number of platelets, individual mouse (platelets; Day 21): 133.9 × 10^4 /mm^3 and 202.7 × 10^4 /mm^3 and 153.0 × 10^4 /mm^3 and 139.6 × 10^4 /mm^3 and 135.5 × 10^4 /mm^3 and 163.9 × 10^4 /mm^3 | % Relative value (number of platelets, Day 0 = 100) (platelets; Day 21, control 103.1): 154.2% | Number of platelets (Average) (platelets; Day 21, control average 114.3): 154.8 × 10^4 /mm^3 | LD50 at 24 h (Acute toxicity test): > 1 mg/kg

CN[C@@H]1C[C@H]2O[C@@](C)([C@@H]1OC)n1c3ccccc3c3c4c(c5c6ccccc6n2c5c31)C(=O)NC4 [Compound I-17, staurosporine]
Relative value (megakaryocyte colonies, control = 100) ([1]; 1.0 pM): 119 | Relative value (megakaryocyte colonies, control = 100) ([1]; 10 pM): 107 | LD50 at 24 h (Acute toxicity test): > 1 mg/kg

COC1C(N(C)C)CC2OC1(C)n1c3ccccc3c3c4c(c5c6ccccc6n2c5c31)C(=O)NC4 (stereo not drawn) [Compound I-25]
Relative value (megakaryocyte colonies, control = 100) ([1]; 0.1 nM): 119 | Relative value (megakaryocyte colonies, control = 100) ([1]; 1 nM): 124 | Relative value (megakaryocyte colonies, control = 100) ([1]; 10 nM): 100 | LD50 at 24 h (Acute toxicity test): > 1 mg/kg

CCCN(C)C1CC2OC(C)(C1OC)n1c3ccccc3c3c4c(c5c6ccccc6n2c5c31)C(=O)NC4 (stereo not drawn) [Compound I-26]
Relative value (megakaryocyte colonies, control = 100) ([1]; 0.1 nM): 108 | Relative value (megakaryocyte colonies, control = 100) ([1]; 1 nM): 121 | Relative value (megakaryocyte colonies, control = 100) ([1]; 10 nM): 111 | LD50 at 24 h (Acute toxicity test): > 1 mg/kg

CNC1CC2OC(C)(C1OC)n1c3ccccc3c3c4c(c5c6cc(C(C)=O)ccc6n2c5c31)C(=O)NC4 (stereo not drawn) [Compound I-30]
Relative value (megakaryocyte colonies, control = 100) ([1]; 0.1 nM): 111 | Relative value (megakaryocyte colonies, control = 100) ([1]; 1 nM): 119 | Relative value (megakaryocyte colonies, control = 100) ([1]; 10 nM): 117 | LD50 at 24 h (Acute toxicity test): > 1 mg/kg

CNC1CC2OC(C)(C1OC)n1c3ccc(C(C)=O)cc3c3c4c(c5c6cc(C(C)=O)ccc6n2c5c31)C(=O)NC4 (stereo not drawn) [Compound I-31]
Relative value (megakaryocyte colonies, control = 100) ([1]; 0.1 nM): 76 | Relative value (megakaryocyte colonies, control = 100) ([1]; 1 nM): 94 | Relative value (megakaryocyte colonies, control = 100) ([1]; 10 nM): 109 | LD50 at 24 h (Acute toxicity test): > 1 mg/kg

CNC1CC2OC(C)(C1OC)n1c3ccc(C=O)cc3c3c4c(c5c6cc(C=O)ccc6n2c5c31)C(=O)NC4 (stereo not drawn) [Compound I-32]
Relative value (megakaryocyte colonies, control = 100) ([1]; 0.1 nM): 76 | Relative value (megakaryocyte colonies, control = 100) ([1]; 1 nM): 94 | Relative value (megakaryocyte colonies, control = 100) ([1]; 10 nM): 109 | LD50 at 24 h (Acute toxicity test): > 1 mg/kg

CCCOc1ccc2c(c1)c1c3c(c4c5ccccc5n5c4c1n2C1CC(NC)C(OC)C5(C)O1)CNC3=O (stereo not drawn) [Compound I-33]
Relative value (megakaryocyte colonies, control = 100) ([1]; 0.1 nM): 101 | Relative value (megakaryocyte colonies, control = 100) ([1]; 1 nM): 114 | Relative value (megakaryocyte colonies, control = 100) ([1]; 10 nM): 105 | LD50 at 24 h (Acute toxicity test): > 1 mg/kg

COC(=O)C1(O)CC2OC1(C)n1c3ccccc3c3c4c(c5c6ccccc6n2c5c31)C(=O)NC4 (stereo not drawn) [Compound I-35, K-252a]
Relative value (megakaryocyte colonies, control = 100) ([1]; 1.0 pM): 130 | Relative value (megakaryocyte colonies, control = 100) ([1]; 10 pM): 140 | LD50 at 24 h (Acute toxicity test): > 1 mg/kg

COC(=O)C1(OC)CC2OC1(C)n1c3ccc(Br)cc3c3c4c(c5c6cc(Br)ccc6n2c5c31)C(=O)NC4 (stereo not drawn) [Compound I-40]
Relative value (megakaryocyte colonies, control = 100) ([1]; 0.1 nM): 109 | Relative value (megakaryocyte colonies, control = 100) ([1]; 1 nM): 125 | Relative value (megakaryocyte colonies, control = 100) ([1]; 10 nM): 114 | LD50 at 24 h (Acute toxicity test): > 1 mg/kg

CC12OC(CC1O)n1c3ccccc3c3c4c(c5c6ccccc6n2c5c31)CNC4=O (stereo not drawn) [Compound I-46]
Relative value (megakaryocyte colonies, control = 100) ([1]; 0.1 nM): 97 | Relative value (megakaryocyte colonies, control = 100) ([1]; 1 nM): 131 | Relative value (megakaryocyte colonies, control = 100) ([1]; 10 nM): 112

COC1C(N(C)C)CC2OC1(C)n1c3ccccc3c3c4c(c5c6ccccc6n2c5c31)C(=O)N(C)C4 (stereo not drawn) [Compound I-49]
Relative value (megakaryocyte colonies, control = 100) ([1]; 0.1 nM): 122 | Relative value (megakaryocyte colonies, control = 100) ([1]; 1 nM): 128

CNC1CC2OC(C)(C1OC)n1c3ccccc3c3c4c(c5c6cc(C=O)ccc6n2c5c31)C(=O)N(C)C4 (stereo not drawn) [Compound I-50]
Relative value (megakaryocyte colonies, control = 100) ([1]; 1 nM): 118 | Relative value (megakaryocyte colonies, control = 100) ([1]; 10 nM): 128

CNC1CC2OC(C)(C1OC)n1c3ccccc3c3c4c(c5c6cc(O)ccc6n2c5c31)C(=O)NC4 (stereo not drawn) [Compound I-52]
LD50 at 24 h (Acute toxicity test): > 1 mg/kg

IL-6: hematopoietic factor which stimulates the production of blood platelets; positive control
Relative value (megakaryocyte colonies, control = 100) ([1]; 200 U/ml, positive control): 117
